Assay results from ChEMBL document CHEMBL2424644, “Synthesis and antiproliferative evaluation of novel benzoimidazole-contained oxazole-bridged analogs of combretastatin A-4” (Eur J Med Chem, 2013).
Each block holds one compound with its values, some of them ahead of it.

Key:
HT-29 [1] = test: Cytotoxicity against human HT-29 cells assessed as growth inhibition after 72 hrs by MTT assay; assay type: functional, cell-based; conditions: HT-29, 72 h
MCF7 [2] = test: Cytotoxicity against human MCF7 cells assessed as growth inhibition after 72 hrs by MTT assay; assay type: functional, cell-based; conditions: MCF7, 72 h
HepG2 = test: Cytotoxicity against human HepG2 cells assessed as growth inhibition after 72 hrs by MTT assay; assay type: functional, cell-based; conditions: HepG2, 72 h
BXPC-3 [3] = test: Cytotoxicity against human BxPC3 cells assessed as growth inhibition after 72 hrs by MTT assay; assay type: functional, cell-based; conditions: BXPC-3, 72 h
A549 = test: Cytotoxicity against human A549 cells assessed as growth inhibition after 72 hrs by MTT assay; assay type: functional, cell-based; conditions: A549, 72 h
HT-29 [4] = test: Cell cycle arrest in human HT-29 cells assessed as accumulation at G2/M phase at 100 nM after 24 hrs by propidium iodide staining-based flow cytometric analysis (reference value: 7.37%); assay type: functional
HT-29 [5] = test: Cell cycle arrest in human HT-29 cells assessed as accumulation at S phase at 100 nM after 24 hrs by propidium iodide staining-based flow cytometric analysis (reference value: 24.39%); assay type: functional
BXPC-3 [6] = test: Potency index, ratio of vincristine IC50 to compound IC50 for human BxPC3 cells; assay type: functional
HT-29 [7] = test: Cell cycle arrest in human HT-29 cells assessed as accumulation at G0/G1 phase at 100 nM after 24 hrs by propidium iodide staining-based flow cytometric analysis (reference value: 68.24%); assay type: functional
MX1 [8] = test: Cytotoxicity against taxol-resistant human MX1 cells assessed as growth inhibition after 72 hrs by MTT assay; assay type: functional, cell-based; conditions: MX1, 72 h
KB [9] = test: Cytotoxicity against human KB cells assessed as growth inhibition after 72 hrs by MTT assay; assay type: functional, cell-based
HT-29 [10] = test: Cell cycle arrest in human HT-29 cells assessed as accumulation at S phase at 50 nM after 24 hrs by propidium iodide staining-based flow cytometric analysis (reference value: 24.39%); assay type: functional
HT-29 [11] = test: Potency index, ratio of combretastatin A-4 IC50 to compound IC50 for human HT-29 cells; assay type: functional
Mus musculus [12] = test: Toxicity in KM mouse allografted with mouse H22 cells assessed as body weight at 7.5 mg/kg, ip administered on day 1 to 7 measured on day 8 (reference value: 30 +/- 3.24 g); assay type: organism-based; parameters: dose 7.5 mg/kg, route intraperitoneal; conditions: in vivo
MCF7 [13] = test: Potency index, ratio of combretastatin A-4 IC50 to compound IC50 for human MCF7 cells; assay type: functional
HT-29 [14] = test: Cell cycle arrest in human HT-29 cells assessed as accumulation at S phase at 12.5 nM after 24 hrs by propidium iodide staining-based flow cytometric analysis (reference value: 24.39%); assay type: functional
H22 [15] = test: Antitumor activity against mouse H22 cells allografted in KM mouse assessed as tumor growth inhibition at 7.5 mg/kg, ip administered on day 1 to 7 measured on day 8 relative to control; assay type: functional; conditions: route intraperitoneal, read-out: TGI
Mus musculus [16] = test: Toxicity in KM mouse allografted with mouse H22 cells assessed as body weight at 20 mg/kg, ip administered on day 1 measured on day 8 (reference value: 30 +/- 3.24 g); assay type: organism-based; parameters: dose 20 mg/kg, route intraperitoneal; conditions: in vivo
H22 [17] = test: Antitumor activity against mouse H22 cells allografted in KM mouse assessed as tumor growth inhibition at 20 mg/kg, ip administered on day 1 measured on day 8 relative to control; assay type: functional; conditions: route intraperitoneal, read-out: TGI
HT-29 [18] = test: Cell cycle arrest in human HT-29 cells assessed as accumulation at G0/G1 phase at 50 nM after 24 hrs by propidium iodide staining-based flow cytometric analysis (reference value: 68.24%); assay type: functional
HT-29 [19] = test: Cell cycle arrest in human HT-29 cells assessed as accumulation at G2/M phase at 12.5 nM after 24 hrs by propidium iodide staining-based flow cytometric analysis (reference value: 7.37%); assay type: functional
MX1 [20] = test: Cytotoxicity against human MX1 cells assessed as growth inhibition after 72 hrs by MTT assay; assay type: functional, cell-based; conditions: MX1, 72 h
Mus musculus [21] = test: Toxicity in KM mouse allografted with mouse H22 cells assessed as body weight at 15 mg/kg, ip administered on day 1 and 4 measured on day 8 (reference value: 30 +/- 3.24 g); assay type: organism-based; parameters: dose 15 mg/kg, route intraperitoneal; conditions: in vivo
KB [22] = test: Cytotoxicity against vincristine-resistant human KB cells assessed as growth inhibition after 72 hrs by MTT assay; assay type: functional, cell-based
HT-29 [23] = test: Cell cycle arrest in human HT-29 cells assessed as accumulation at G0/G1 phase at 12.5 nM after 24 hrs by propidium iodide staining-based flow cytometric analysis (reference value: 68.24%); assay type: functional
HT-29 [24] = test: Cell cycle arrest in human HT-29 cells assessed as accumulation at G2/M phase after 24 hrs by propidium iodide staining-based flow cytometric analysis; assay type: functional
Tubulin = test: Inhibition of tubulin (unknown origin) polymerization measured for 60 mins; assay type: protein-complex assay, Homo sapiens
H22 [25] = test: Antitumor activity against mouse H22 cells allografted in KM mouse assessed as tumor growth inhibition at 10 mg/kg, ip administered on day 1, 3, 5, 7 measured on day 8 relative to control; assay type: functional; conditions: route intraperitoneal, read-out: TGI
HT-29 [26] = test: Cell cycle arrest in human HT-29 cells assessed as accumulation at G2/M phase at 50 nM after 24 hrs by propidium iodide staining-based flow cytometric analysis (reference value: 7.37%); assay type: functional
Mus musculus [27] = test: Toxicity in KM mouse allografted with mouse H22 cells assessed as body weight at 10 mg/kg, ip administered on day 1, 3, 5, 7 measured on day 8 (reference value: 30 +/- 3.24 g); assay type: organism-based; parameters: dose 10 mg/kg, route intraperitoneal; conditions: in vivo
H22 [28] = test: Antitumor activity against mouse H22 cells allografted in KM mouse assessed as tumor growth inhibition at 15 mg/kg, ip administered on day 1 and 4 measured on day 8 relative to control; assay type: functional; conditions: route intraperitoneal, read-out: TGI
H22 [29] = test: Antitumor activity against mouse H22 cells allografted in KM mouse assessed as tumor growth inhibition at 0.25 mg/kg, ip administered on day 1 and 4 measured on day 8 relative to control; assay type: functional; conditions: route intraperitoneal, read-out: TGI
H22 [30] = test: Antitumor activity against mouse H22 cells allografted in KM mouse assessed as tumor growth inhibition at 0.5 mg/kg, ip administered on day 1 and 4 measured on day 8 relative to control; assay type: functional; conditions: route intraperitoneal, read-out: TGI
Mus musculus [31] = test: Toxicity in KM mouse allografted with mouse H22 cells assessed as body weight at 0.25 mg/kg, ip administered on day 1 and 4 measured on day 8 (reference value: 30 +/- 3.24 g); assay type: organism-based; parameters: dose 0.25 mg/kg, route intraperitoneal; conditions: in vivo
Mus musculus [32] = test: Toxicity in KM mouse allografted with mouse H22 cells assessed as body weight at 0.5 mg/kg, ip administered on day 1 and 4 measured on day 8 (reference value: 30 +/- 3.24 g); assay type: organism-based; parameters: dose 0.5 mg/kg, route intraperitoneal; conditions: in vivo

Compound: COc1cc(-c2ncoc2-c2ccc(OC)c3c2ncn3CCO)cc(OC)c1OC
IC50 (HT-29 [1]): 170 nM
IC50 (MCF7 [2]): 510 nM
IC50 (HepG2): 250 nM

Compound: COc1cc(-c2ncoc2-c2ccc(OC)c3ncn(CC(N)=O)c23)cc(OC)c1OC
IC50 (BXPC-3 [3]): 1390 nM
IC50 (HT-29 [1]): 1600 nM
IC50 (A549): > 5000 nM
IC50 (MCF7 [2]): 2050 nM
IC50 (HepG2): 870 nM

Compound: COc1cc(-c2ncoc2-c2ccc(OC)c3c2ncn3CC#N)cc(OC)c1OC
IC50 (BXPC-3 [3]): 2190 nM
IC50 (HT-29 [1]): 190 nM
IC50 (A549): 2600 nM
IC50 (MCF7 [2]): 89 nM
IC50 (HepG2): 77 nM

IC50 (Tubulin): 390 nM
Compound: COc1cc(-c2ncoc2-c2ccc(OC)c3[nH]cnc23)cc(OC)c1OC
IC50 (BXPC-3 [3]): 31 nM
Activity (HT-29 [4]): 44.25%
Activity (HT-29 [5]): 30.04%
Ratio IC50 (BXPC-3 [6]): 16
Activity (HT-29 [7]): 25.71%
IC50 (HT-29 [1]): 8.4 nM
IC50 (MX1 [8]): 249 nM
IC50 (KB [9]): 16 nM
Activity (HT-29 [10]): 34.83%
Ratio IC50 (HT-29 [11]): 32
Activity (Mus musculus [12]): 25.5 g
Ratio IC50 (MCF7 [13]): 8
Activity (HT-29 [14]): 24.97%
inhibition in vivo at 7.5 mg/kg (H22 [15]): 55%
Activity (Mus musculus [16]): 30.4 g
inhibition in vivo at 20 mg/kg (H22 [17]): 42%
Activity (HT-29 [18]): 29.54%
Activity (HT-29 [19]): 14.75%
IC50 (MX1 [20]): 397 nM
Activity (Mus musculus [21]): 24.4 g
IC50 (KB [22]): 65 nM
Activity (HT-29 [23]): 50.29%
Activity (HT-29 [24]): Dose-dependent effect
inhibition in vivo at 10 mg/kg (H22 [25]): 52%
Activity (HT-29 [26]): 35.63%
Activity (Mus musculus [27]): 28.4 g
IC50 (MCF7 [2]): 25 nM
inhibition in vivo at 15 mg/kg (H22 [28]): 66%

Compound: CCOC(=O)Cn1cnc2c(OC)ccc(-c3ocnc3-c3cc(OC)c(OC)c(OC)c3)c21
IC50 (BXPC-3 [3]): > 500 nM
IC50 (HT-29 [1]): 350 nM
IC50 (A549): 23.4 nM
IC50 (MCF7 [2]): 419 nM
IC50 (HepG2): 500 nM

Compound: COc1cc(-c2ncoc2-c2ccc(OC)c3c2ncn3CC(N)=O)cc(OC)c1OC
IC50 (HT-29 [1]): > 10000 nM
IC50 (MCF7 [2]): > 10000 nM
IC50 (HepG2): 990 nM

Compound: COc1cc(-c2ncoc2-c2ccc(OC)c3ncn(CC(=O)O)c23)cc(OC)c1OC
IC50 (BXPC-3 [3]): > 5000 nM
IC50 (HT-29 [1]): > 5000 nM
IC50 (A549): > 5000 nM
IC50 (MCF7 [2]): > 5000 nM
IC50 (HepG2): > 5000 nM

Compound: COc1cc(-c2ncoc2-c2ccc(OC)c3ncn(CCO)c23)cc(OC)c1OC
IC50 (HT-29 [1]): 180 nM
IC50 (MCF7 [2]): 540 nM
IC50 (HepG2): 130 nM

Compound: COc1cc(-c2ncoc2-c2ccc(OC)c3ncn(CC#N)c23)cc(OC)c1OC
IC50 (BXPC-3 [3]): 1390 nM
IC50 (HT-29 [1]): 1600 nM
IC50 (A549): > 5000 nM
IC50 (MCF7 [2]): 2050 nM
IC50 (HepG2): 870 nM

Compound: CC[C@]1(O)C[C@H]2CN(CCc3c([nH]c4ccccc34)[C@@](C(=O)OC)(c3cc4c(cc3OC)N(C=O)[C@H]3[C@@](O)(C(=O)OC)[C@H](OC(C)=O)[C@]5(CC)C=CCN6CC[C@]43[C@@H]65)C2)C1 [VINCRISTINE]
IC50 (BXPC-3 [3]): > 500 nM
IC50 (HT-29 [1]): 12 nM
IC50 (MX1 [8]): 75 nM
IC50 (KB [9]): 139 nM
inhibition in vivo at 0.25 mg/kg (H22 [29]): 31%
inhibition in vivo at 0.5 mg/kg (H22 [30]): 61%
IC50 (MX1 [20]): 12 nM
IC50 (KB [22]): > 100000 nM
IC50 (A549): 53 nM
IC50 (MCF7 [2]): 13 nM
IC50 (HepG2): 210 nM
Activity (Mus musculus [31]): 24.6 g
Activity (Mus musculus [32]): 25.5 g
